In ChEMBL document CHEMBL1909046, “DrugMatrix in vitro pharmacology data” one finds IC50 and Ki data, which are given here for 17 molecules.

For orientation: IC50 means the concentration at which inhibition is half-maximal. As usually defined, the Ki is a measure of affinity in units of concentration, obtained from inhibition or displacement.

In test [1] the target is T1, Cysteinyl leukotriene receptor 1 (Homo sapiens, UniProt Q9Y271). Also: in other assays of this panel Not Active means under 50% inhibition at 10 µM.
T1 sequence (Q9Y271 whole entry): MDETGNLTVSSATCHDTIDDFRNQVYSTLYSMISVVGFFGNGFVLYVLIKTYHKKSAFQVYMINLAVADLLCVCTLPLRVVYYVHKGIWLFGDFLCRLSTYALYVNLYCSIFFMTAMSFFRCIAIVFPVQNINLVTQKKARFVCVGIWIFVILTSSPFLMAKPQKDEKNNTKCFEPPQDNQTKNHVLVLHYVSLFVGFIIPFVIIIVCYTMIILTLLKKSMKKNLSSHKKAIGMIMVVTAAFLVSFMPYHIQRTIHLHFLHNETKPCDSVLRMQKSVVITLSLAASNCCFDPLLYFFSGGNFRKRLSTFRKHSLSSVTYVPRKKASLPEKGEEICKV
It counts as cell membranes, Membrane. Conditions: cho-k1.

Test [2] concerns the target Sigma non-opioid intracellular receptor 1 (Homo sapiens, UniProt Q99720). The test is described as follows: DRUGMATRIX: Sigma1 radioligand binding (ligand: [3H] Haloperidol). It counts as cell membranes, Jurkat, Membrane. The note with it: Not Active = under 50% inhibition at 10 µM; for Ki: read-out: Ki.
For test [3], the target named is Protein phosphatase 3 catalytic subunit alpha (Homo sapiens, UniProt Q08209). Further details: species or system Escherichia coli.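 Also: inhibition of calcineurin (PP2B) enzyme activity, measured with DiFMUP as the substrate; in other assays of this panel Not Active means under 50% inhibition at 10 µM.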
Test [4] deals with T2, Muscarinic acetylcholine receptor M4 (Homo sapiens, UniProt P08173).
T2 sequence (P08173 whole entry): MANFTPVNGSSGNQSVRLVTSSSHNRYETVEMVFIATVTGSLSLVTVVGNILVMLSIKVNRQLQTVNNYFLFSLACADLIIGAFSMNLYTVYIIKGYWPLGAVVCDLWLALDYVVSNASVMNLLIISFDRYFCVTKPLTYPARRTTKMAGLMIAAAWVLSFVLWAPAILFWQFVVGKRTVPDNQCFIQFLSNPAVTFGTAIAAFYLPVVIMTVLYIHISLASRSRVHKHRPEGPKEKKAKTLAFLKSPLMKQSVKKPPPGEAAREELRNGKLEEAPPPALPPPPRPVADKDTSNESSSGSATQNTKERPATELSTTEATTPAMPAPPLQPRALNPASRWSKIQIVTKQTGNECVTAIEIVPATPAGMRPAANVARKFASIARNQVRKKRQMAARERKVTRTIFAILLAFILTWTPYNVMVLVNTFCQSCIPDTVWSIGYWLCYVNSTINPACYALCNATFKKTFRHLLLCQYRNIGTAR
The test is classed as cell membranes, CHO-K1, Membrane.

For the next test, the target named is T3, Calcitonin receptor (Homo sapiens, UniProt P30988). Also: in other assays of this panel Not Active means under 50% inhibition at 10 µM.
T3 sequence (P30988 whole entry): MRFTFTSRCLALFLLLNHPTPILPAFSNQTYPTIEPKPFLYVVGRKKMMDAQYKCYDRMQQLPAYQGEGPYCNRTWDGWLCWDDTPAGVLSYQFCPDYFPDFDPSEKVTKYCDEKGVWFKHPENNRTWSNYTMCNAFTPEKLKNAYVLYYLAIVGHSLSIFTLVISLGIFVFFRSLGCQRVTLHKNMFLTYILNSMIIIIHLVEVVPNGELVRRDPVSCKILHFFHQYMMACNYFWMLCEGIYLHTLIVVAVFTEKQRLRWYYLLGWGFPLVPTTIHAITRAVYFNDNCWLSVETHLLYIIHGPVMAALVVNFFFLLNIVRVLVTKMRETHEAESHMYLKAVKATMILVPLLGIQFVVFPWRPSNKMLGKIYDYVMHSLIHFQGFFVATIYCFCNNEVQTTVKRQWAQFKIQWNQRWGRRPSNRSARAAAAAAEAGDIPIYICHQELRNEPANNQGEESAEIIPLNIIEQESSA
The test is classed as cell membranes, Membrane. The note with it: t47d.

The next test has as its target T4, Progesterone receptor (Bos taurus, UniProt Q690N0).
T4 sequence (Q690N0 whole entry): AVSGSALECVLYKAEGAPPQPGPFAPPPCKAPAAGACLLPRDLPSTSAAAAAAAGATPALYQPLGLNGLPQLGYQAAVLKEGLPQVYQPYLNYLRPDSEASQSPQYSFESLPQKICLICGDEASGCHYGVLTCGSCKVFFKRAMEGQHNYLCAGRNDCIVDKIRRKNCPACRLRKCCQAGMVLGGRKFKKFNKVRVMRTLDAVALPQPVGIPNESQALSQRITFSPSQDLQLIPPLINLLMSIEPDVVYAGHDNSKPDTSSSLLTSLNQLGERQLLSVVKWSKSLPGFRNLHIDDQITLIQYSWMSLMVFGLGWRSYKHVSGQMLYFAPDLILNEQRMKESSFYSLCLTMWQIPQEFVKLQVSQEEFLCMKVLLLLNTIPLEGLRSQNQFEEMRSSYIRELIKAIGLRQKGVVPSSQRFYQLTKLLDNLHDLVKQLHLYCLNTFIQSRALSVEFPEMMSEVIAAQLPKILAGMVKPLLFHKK
Briefly: DRUGMATRIX: Progesterone radioligand binding (ligand: [3H] R-5020). It counts as tissue-based, Uterus. Conditions: Not Active = under 50% inhibition at 10 µM.

Test [5] deals with T5, C-C chemokine receptor type 4 (Homo sapiens, UniProt P51679).
T5 sequence (P51679 whole entry): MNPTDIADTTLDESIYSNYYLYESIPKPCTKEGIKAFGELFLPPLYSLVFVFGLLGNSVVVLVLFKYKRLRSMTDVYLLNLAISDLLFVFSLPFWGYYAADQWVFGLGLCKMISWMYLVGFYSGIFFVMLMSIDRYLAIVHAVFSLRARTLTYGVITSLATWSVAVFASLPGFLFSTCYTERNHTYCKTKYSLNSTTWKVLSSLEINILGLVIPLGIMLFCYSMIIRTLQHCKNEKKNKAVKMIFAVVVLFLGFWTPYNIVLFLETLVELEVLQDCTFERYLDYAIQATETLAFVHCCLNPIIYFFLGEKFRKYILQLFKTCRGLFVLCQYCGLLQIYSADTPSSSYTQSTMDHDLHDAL
The test is classed as cell membranes, Membrane. Conditions: chem-1.

Sequence of Sigma non-opioid intracellular receptor 1 (Q99720 whole entry): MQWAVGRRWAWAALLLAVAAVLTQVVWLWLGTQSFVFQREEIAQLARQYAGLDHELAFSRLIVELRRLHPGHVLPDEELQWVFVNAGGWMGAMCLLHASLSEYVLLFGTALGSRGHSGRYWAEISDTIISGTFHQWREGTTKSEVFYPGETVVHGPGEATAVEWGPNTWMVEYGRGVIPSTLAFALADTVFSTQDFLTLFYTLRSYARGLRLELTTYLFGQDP

With `CCCCC(=O)N(Cc1ccc(-c2ccccc2-c2nnn[nH]2)cc1)[C@H](C(=O)O)C(C)C`, the IC50 result (in test [1]; in test [2] (jurkat); in test [3]; in test [4] (cho-k1); at Calcitonin receptor; at Progesterone receptor) was “Not Active” in each case. Besides, in test [5], the IC50 result is reported as “Not Active”.

Take `O=C(O)COc1ccc(C(=O)c2cccs2)c(Cl)c1Cl`: the half-inhibitory concentration (IC50) result (in test [1]; in test [2] (jurkat); in test [3]; in test [4] (cho-k1); at Calcitonin receptor; at Progesterone receptor) was “Not Active” each time. In addition, the IC50 result in test [5] is listed as “Not Active”.

For the molecule `CN1[C@@H]2CC[C@H]1C[C@@H](OC(c1ccccc1)c1ccccc1)C2` [BENZTROPINE], the half-inhibitory concentration (IC50) result (in test [1]; in test [3]; at Calcitonin receptor; at Progesterone receptor; in test [5]) was “Not Active” in each case.

For the molecule `C[C@@](Cc1ccc(O)c(O)c1)(NN)C(=O)O.O` [CARBIDOPA], the IC50 result (in test [1]; in test [2] (jurkat); in test [3]; in test [4] (cho-k1); on Calcitonin receptor; at Progesterone receptor) was “Not Active” each time. Further, in test [5], the 50% inhibitory concentration (IC50) result is listed as “Not Active”.

In the case of `CN1CCN(C2=Nc3cc(Cl)ccc3Nc3ccccc32)CC1` [CLOZAPINE], the IC50 result (in test [1]; in test [2] (jurkat); in test [3]; at Calcitonin receptor; at Progesterone receptor; in test [5]) was “Not Active” throughout.

With `CC(C)NC[C@@H](O)COc1cccc2ccccc12` [DEXPROPRANOLOL], the IC50 result was “Not Active” in test [1]; 3970 nM in test [2] (read-out: IC50); “Not Active” in test [3]; “Not Active” in test [4] (cho-k1); “Not Active” at Calcitonin receptor; “Not Active” at Progesterone receptor. Also, the IC50 entry in test [5] was “Not Active”. The Ki in test [2] was found to be 1670 nM.

Turning to `CC(C)NC[C@H](O)COc1cccc2ccccc12` [LEVOPROPRANOLOL], the IC50 entry in test [1] was “Not Active”; in test [2] (read-out: IC50), 6660 nM; in test [3], “Not Active”; in test [4] (cho-k1), “Not Active”; at Calcitonin receptor, “Not Active”; at Progesterone receptor it was “Not Active”. Besides, the IC50 result in test [5] is given as “Not Active”. Further, the inhibition constant (Ki) in test [2] came out at 2800 nM.

On to `O=C(O)CCCCC1CCSS1` (stereo not drawn) [LIPOIC ACID, ALPHA], for which the IC50 result (in test [1]; in test [2] (jurkat); in test [3]; in test [4] (cho-k1); on Calcitonin receptor; at Progesterone receptor) was “Not Active” each time. Besides, the 50% inhibitory concentration (IC50) entry in test [5] is listed as “Not Active”.

Consider `CN(C)C(=O)C(CCN1CCC(O)(c2ccc(Cl)cc2)CC1)(c1ccccc1)c1ccccc1` [LOPERAMIDE], for which the IC50 entry in test [1] is “Not Active”; in test [2] (read-out: IC50) it was 628 nM; in test [3] it was “Not Active”; in test [4] (cho-k1), “Not Active”; on Calcitonin receptor, “Not Active”; at Progesterone receptor it was “Not Active”. The IC50 result in test [5] is on record as “Not Active”. In test [2], the Ki amounted to 264 nM.

Turning to `Clc1ccc(COC(Cn2ccnc2)c2ccc(Cl)cc2Cl)c(Cl)c1` (stereo unspecified) [MICONAZOLE], the half-maximal inhibitory concentration (IC50) result in test [1] is “Not Active”; in test [2] (jurkat), “Not Active”; in test [3] it was “Not Active”; in test [4] (read-out: IC50) it was 3200 nM; at Calcitonin receptor, “Not Active”; on Progesterone receptor (read-out: IC50), 14900 nM. In addition, the IC50 entry in test [5] is given as “Not Active”. For the same molecule, the figures for the Ki (in test [4] (read-out: Ki); on Progesterone receptor (read-out: Ki)) were 446 nM and 1940 nM, respectively.

Regarding `Oc1ccc2c3c1O[C@H]1[C@@H](O)CC[C@@]4(O)[C@@H](C2)N(CC2CCC2)CC[C@]314` [NALBUPHINE], the half-inhibitory concentration (IC50) result (in test [1]; in test [2] (jurkat); in test [3]; in test [4] (cho-k1); on Calcitonin receptor; on Progesterone receptor) was “Not Active” each time. Further, the IC50 entry in test [5] is given as “Not Active”.

Consider `C[C@]12C=CC(=O)C=C1CC[C@@H]1[C@@H]2C(=O)C[C@@]2(C)[C@H]1CC[C@]2(O)C(=O)CO` [PREDNISONE], for which the IC50 result (in test [1]; in test [2] (jurkat); in test [3]; in test [4] (cho-k1); on Calcitonin receptor; at Progesterone receptor) was “Not Active” each time. The IC50 entry in test [5] is “Not Active”.

Turning to `OCCOCCN1CCN(C2=Nc3ccccc3Sc3ccccc32)CC1` [QUETIAPINE], the IC50 result is “Not Active” in test [1]; 2290 nM in test [2] (read-out: IC50); “Not Active” in test [3]; “Not Active” at Calcitonin receptor; “Not Active” on Progesterone receptor; “Not Active” in test [5]. Further, the inhibition constant Ki in test [2] was found to be 964 nM.

Regarding `COC(=O)[C@H]1[C@H]2C[C@@H]3c4[nH]c5cc(OC)ccc5c4CCN3C[C@H]2C[C@@H](OC(=O)c2cc(OC)c(OC)c(OC)c2)[C@@H]1OC` [RESERPINE], the 50% inhibitory concentration (IC50) entry (in test [1]; in test [2] (jurkat); in test [3]; in test [4] (cho-k1); at Calcitonin receptor; on Progesterone receptor) was “Not Active” each time. The IC50 result in test [5] is given as “Not Active”.

For the molecule `O=C(O)c1ccccc1O` [SALICYLIC ACID], the IC50 result (in test [1]; in test [2] (jurkat); in test [3]; in test [4] (cho-k1); on Calcitonin receptor; at Progesterone receptor) was “Not Active” in each case. Besides, the 50% inhibitory concentration (IC50) result in test [5] is given as “Not Active”.

Take `C[S+]([O-])c1ccc(-c2nc(-c3ccncc3)c(-c3ccc(F)cc3)[nH]2)cc1` (stereo unspecified) [SB-203580]: the IC50 result (in test [1]; in test [2] (jurkat); in test [3]; in test [4] (cho-k1); at Calcitonin receptor; at Progesterone receptor) was “Not Active” in each case. In test [5], the half-maximal inhibitory concentration (IC50) result is “Not Active”.

For `CC1CCC(NC(=O)N(CCCl)N=O)CC1` (stereo unspecified) [SEMUSTINE], the IC50 entry (in test [1]; in test [2] (jurkat); in test [3]; in test [4] (cho-k1); on Calcitonin receptor; on Progesterone receptor) was “Not Active” throughout. Besides, in test [5], the IC50 result is “Not Active”.
